Assay results reported in article PMC8972196, “A Set of Experimentally Validated Decoys for the Human CC Chemokine Receptor 7 (CCR7) Obtained by Virtual Screening” (Frontiers in Pharmacology, 2022).
Where two headings read alike, the source gives them in different places.

What was measured:
CCR7 = test system: CCR7; parameters: method as in Jaeger et al., 2019; conditions: result in words; ref Jaeger et al., 2019; cited from earlier work
human CCR7 = biological target: T1, human CCR7 (Homo sapiens, UniProt P32248); test: CCL19-induced calcium mobilization assay, U87.CD4 cells expressing CCR7; type: cell-based
T1 construct: expressed in transfected cells
T1 sequence (P32248 25-378): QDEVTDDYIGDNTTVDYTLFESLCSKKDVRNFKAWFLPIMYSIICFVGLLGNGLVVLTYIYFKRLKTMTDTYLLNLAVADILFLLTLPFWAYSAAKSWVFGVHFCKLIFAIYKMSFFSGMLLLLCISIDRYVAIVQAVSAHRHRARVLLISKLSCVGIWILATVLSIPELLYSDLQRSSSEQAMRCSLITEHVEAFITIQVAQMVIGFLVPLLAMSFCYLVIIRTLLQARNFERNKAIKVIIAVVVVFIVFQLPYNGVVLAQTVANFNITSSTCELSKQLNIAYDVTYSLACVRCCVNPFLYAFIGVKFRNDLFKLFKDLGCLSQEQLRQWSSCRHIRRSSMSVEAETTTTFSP
In short: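 U87.CD4 cells stably expressing human CCR7, CXCR2 or CCR5 were seeded at 20,000 cells/well and incubated overnight at 37°C and 5% CO2. Cells were then incubated for 45 min at room temperature in the dark before calcium responses were recorded. CCR7 responses were induced with CCL19 and CXCR2 responses with CXCL8.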

[1] = classification of tested compounds as decoy or active
[2] = CCL19 induced calcium signaling, read-out: IC50 [μM] block CCL19 induced calcium signaling
[3] = classification as decoy or active on CCR7
[4] = CCL19-induced calcium signaling, read-out: IC50 [μM] block CCL19 induced calcium signaling

Row | Decoy – 0 Active – 1 (human CCR7; [1]) | IC50 (human CCR7; [2]) [µM] | Decoy – 0 Active – 1 (human CCR7; [3]) | IC50 (human CCR7; [4]) [µM] | Compound | also measured
1 | 0 |  |  | > 50 | O=S1(=O)N=C(NCc2ccco2)c2ccccc21 [C148, O=S1(=O)N=C(NCc2ccco2)c2ccccc21] | 
2 | 0 |  |  | > 50 | CN(C)C(=O)c1cccc(NC(=O)NCCC2=CCCCC2)c1 [C127, CN(C)C(=O)c1cccc(NC(=O)NCCC2=CCCCC2)c1] | 
3 |  | > 50 | 0 |  | Cc1nc[nH]c1C(=O)NC1CC(=O)N(Cc2ccccc2Cl)C1 (centres unmarked) [C274, Cc1nc[nH]c1C(=O)NC1CC(=O)N(Cc2ccccc2Cl)C1] | 
4 | 0 |  |  | > 50 | CNC(=O)c1cccc(NC(=O)c2cn(Cc3ccccn3)nn2)c1C [C100, CNC(=O)c1cccc(NC(=O)c2cn(Cc3ccccn3)nn2)c1C] | 
5 | 0 |  |  | > 50 | C[C@H](c1ccccc1)[C@@H](C)NC(=O)N[C@H]1CCN(C)C1=O [C114, C[C@@H](NC(=O)N[C@H]1CCN(C)C1=O)[C@H](C)c1ccccc1] | 
6 | 0 |  |  | > 50 | C[S@+]([O-])c1cccc(NC(=O)NCC2(c3cccc(F)c3)CC2)c1 [C130, C[S@](=O)c1cccc(NC(=O)NCC2(c3cccc(F)c3)CC2)c1] | 
7 | 0 |  |  | > 50 | CNC(=O)c1cccc(NC(=O)NCC(C)(C)c2cccs2)c1C [C126, CNC(=O)c1cccc(NC(=O)NCC(C)(C)c2cccs2)c1C] | 
8 | 0 |  |  | > 50 | CC(C)[C@@H](NC(=O)c1cccc(NC(=O)C2CC2)c1)c1ccccn1 [C155, CC(C)[C@@H](NC(=O)c1cccc(NC(=O)C2CC2)c1)c1ccccn1] | 
9 | 0 |  |  | > 50 | Cc1cccc2c(=O)n(CCC(=O)N[C@@H](c3ccccc3)C(C)C)cnc12 [C131, Cc1cccc2c(=O)n(CCC(=O)N[C@@H](c3ccccc3)C(C)C)cnc12] | 
10 | 0 |  |  | > 50 | COC(=O)c1sccc1Nc1c(NCc2ccc(Cl)cc2)c(=O)c1=O [C009, COC(=O)c1sccc1Nc1c(NCc2ccc(Cl)cc2)c(=O)c1=O] | 
11 | 0 |  |  | > 50 | Cc1ccc(CNC(=O)c2nnc(-c3ccc(S(=O)(=O)N4CCCC4)cc3)o2)o1 [C091, Cc1ccc(CNC(=O)c2nnc(-c3ccc(S(=O)(=O)N4CCCC4)cc3)o2)o1] | 
12 |  | > 50 | 0 |  | O=C1CC(C(=O)N2CCCC2c2cccs2)CN1c1cccc2ccccc12 (centres unmarked) [C230, O=C1CC(C(=O)N2CCCC2c2cccs2)CN1c1cccc2ccccc12] | 
13 | 0 |  |  | > 50 | CN(C)C(=O)Cn1cccc(NC(=O)CCC(C)(C)c2ccccc2)c1=O [C128, CN(C)C(=O)Cn1cccc(NC(=O)CCC(C)(C)c2ccccc2)c1=O] | 
14 | 0 |  |  | > 30 | Cc1ccnc(NC(=S)NC(=O)c2cccc3ccccc23)c1 [C032, Cc1ccnc(NC(=S)NC(=O)c2cccc3ccccc23)c1] | 
15 | 0 |  |  | > 50 | CC[C@@H](NS(=O)(=O)NCc1ccccc1)c1cc(C)ccn1 [C137, CC[C@@H](NS(=O)(=O)NCc1ccccc1)c1cc(C)ccn1] | 

Second part, the compound before the results:

Row | Compound | Decoy – 0 Active – 1 (human CCR7; [1]) | IC50 (human CCR7; [2]) [µM] | Decoy – 0 Active – 1 (human CCR7; [3]) | IC50 (human CCR7; [4]) [µM] | also measured
16 | CCOc1ccc(NC(=O)C2CCN(C3=NS(=O)(=O)C(c4ccc(OC)cc4)=C3C)CC2)cc1 [CS-1] |  |  |  |  | thermal stabilization of CCR7 (CCR7): hits in the thermofluor stability assay, albeit less potent than cmp2105 and navarixin
17 | Maraviroc [reference compound] | 0 |  |  |  | CCR7 antagonism in calcium mobilization assay (human CCR7; CCL19-induced, result in words): absence of activity; thermal stabilization of CCR7 (CCR7): completely lacked the ability to thermally stabilize CCR7
18 | CC(C)(C)c1ccc(S(=O)(=O)Nc2ccc(Cl)cc2C(=O)c2cc[n+]([O-])cc2)cc1 [Vercirnon] |  |  |  |  | thermal stabilization of CCR7 (CCR7): completely lacked the ability to thermally stabilize CCR7
19 | CC1(C)Cc2nc(C(C)(C)C)ncc2C(NC(=O)c2cc(C(F)(F)F)n[nH]2)C1 (centres unmarked) [C177, CC1(C)Cc2nc(C(C)(C)C)ncc2C(NC(=O)c2cc(C(F)(F)F)n[nH]2)C1] |  | > 50 | 0 |  | 
20 | CC1CN(C(=O)c2cc3c(OC(F)(F)F)cccc3[nH]2)CC(=O)N1 (centres unmarked) [C176, CC1CN(C(=O)c2cc3c(OC(F)(F)F)cccc3[nH]2)CC(=O)N1] |  | > 50 | 0 |  | 
21 | COc1ccc(CC(C)(O)CNC(=O)NCc2cccc3ccccc23)cc1 (centres unmarked) [C192, COc1ccc(CC(C)(O)CNC(=O)NCc2cccc3ccccc23)cc1] |  | > 50 | 0 |  | 
22 | Cc1ccc(N=C(N)C(N)=Nc2ccc(C)cc2)cc1 [C065, Cc1ccc([NH+]=C(N)C(N)=[NH+]c2ccc(C)cc2)cc1] | 0 |  |  | > 10 | 
23 | CCC1(C(N)=O)CCCN(C(=O)NCc2c(Cl)cccc2Cl)C1 (centres unmarked) [C165, CCC1(C(N)=O)CCCN(C(=O)NCc2c(Cl)cccc2Cl)C1] |  | > 50 | 0 |  | 
24 | CN(C)CCNc1c(Nc2cc(C(F)(F)F)cc(C(F)(F)F)c2)c(=O)c1=O [C024, O=C1C(NCCN(C)C)=C(NC2=CC(C(F)(F)F)=CC(C(F)(F)F)=C2)C1=O] | 0 |  |  | > 50 | 
25 | COc1ccc(C)cc1NC(=S)N1CCN(c2ccccc2O)CC1 [C026, COc1ccc(C)cc1NC(=S)N1CCN(CC1)c1ccccc1O] | 0 |  |  | > 30 | 
26 | NC(=S)Nc1n[nH]c2ccccc12 [C049, S=C(NC1=NNC2=C1C=CC=C2)N] | 0 |  |  | > 30 | 
27 | CC(O)CNc1c(N2CCN(Cc3ccccc3Cl)CC2)c(=O)c1=O (centres unmarked) [C007, CC(O)CNc1c(N2CC[NH+](Cc3ccccc3Cl)CC2)c(=O)c1=O] | 0 |  |  |  | IC50 (human CCR7): > 50 µM
28 | CC(C)C1(CO)CCCN(C(=O)NCc2ccc(Cl)cc2F)C1 (centres unmarked) [C168, CC(C)C1(CO)CCCN(C(=O)NCc2ccc(Cl)cc2F)C1] |  | > 50 | 0 |  | 
29 | O=S(=O)(NC(c1ccccc1)c1ccccn1)c1ccc2c(c1)OCCCO2 (centres unmarked) [C252, c1ccc(cc1)C(c2ccccn2)NS(=O)(=O)c3ccc4c(c3)OCCCO4] |  | > 50 | 0 |  | 
30 | COc1ccc(C(Cc2ccccc2)NC(=O)N2CCC(O)C(F)(F)C2)cc1 (centres unmarked) [C181, COc1ccc(C(Cc2ccccc2)NC(=O)N2CCC(O)C(F)(F)C2)cc1] |  | > 50 | 0 |  | 
31 | O=C(CNc1c(N2CCN(c3ccc(Cl)cc3)CC2)c(=O)c1=O)NCc1ccco1 [C008, O=C(CNc1c(N2CCN(c3ccc(Cl)cc3)CC2)c(=O)c1=O)NCc1ccco1] | 0 |  |  | > 50 | 
32 | CNC(=O)c1ccc(C=CC(=O)N(Cc2ccsc2)C2CC2)cc1 [C059, CNC(=O)c1ccc(C=CC(=O)N(Cc2ccsc2)C2CC2)cc1] | 0 |  |  | > 10 | 
33 | O=C(CN1CCCC1Cc1ccccc1Cl)NC1CCCCNC1=O (centres unmarked) [C284, O=C(CN1CCCC1Cc1ccccc1Cl)NC1CCCCNC1=O] |  | > 50 | 0 |  | 
34 | NC(=O)C1CC(O)CN1C(=S)Nc1ccc(S(=O)(=O)N2CCOCC2)cc1 (centres unmarked) [C028, NC(=O)C1CC(O)CN1C(=S)Nc1ccc(cc1)S(=O)(=O)N1CCOCC1] | 0 |  |  | > 30 | 
35 | CCN(CC)C(CNC(=O)c1ccc(C)[nH]c1=O)Cc1ccccc1 (centres unmarked) [C283, CCN(CC)C(CNC(=O)c1ccc(C)[nH]c1=O)Cc1ccccc1] |  |  | 0 |  | IC50 (human CCR7): > 50 µM
36 | CCOC(=O)[C@H](NCC(=O)Nc1cccc(C(=O)N(C)C)c1)C(C)C [C125, CCOC(=O)[C@H]([NH2+]CC(=O)Nc1cccc(C(=O)N(C)C)c1)C(C)C] | 0 |  |  | > 50 | 
37 | COc1ccc2c(c1)CCCN2C(=O)C1CC(=O)N(c2ccc3c(c2)OCCO3)C1 (centres unmarked) [C218, COc1ccc2c(c1)CCCN2C(=O)C1CC(=O)N(c2ccc3c(c2)OCCO3)C1] |  | > 50 | 0 |  | 
38 | C/N=C(\NCCC(=O)N(C)C)N[C@H](C)c1ccc(C)o1 [C140, C/[NH+]=C(\NCCC(=O)N(C)C)N[C@H](C)c1ccc(C)o1] | 0 |  |  | > 50 | 
39 | Cc1ccc(S(=O)(=O)C(CNS(=O)(=O)c2ccc(F)cc2)c2cccnc2)cc1 (centres unmarked) [C262, Cc1ccc(cc1)S(=O)(=O)C(CNS(=O)(=O)c2ccc(cc2)F)c3cccnc3] |  | > 50 | 0 |  | 
40 | CCc1ccc(C(NC(=O)NC2C=CC(CO)C2)C(C)(C)C)o1 (centres unmarked) [C200, CCc1ccc(C(NC(=O)NC2C=CC(CO)C2)C(C)(C)C)o1] |  | > 50 | 0 |  | 
41 | CCN(Cc1ccc(Cl)cc1)Cc1cc(=O)c2cccc(F)c2[nH]1 [C278, CCN(Cc1ccc(Cl)cc1)Cc1cc(=O)c2cccc(F)c2[nH]1] |  | > 50 | 0 |  | 
42 | COC(=O)c1sccc1Nc1c(NC2CCCCC2)c(=O)c1=O [C006, COC(=O)c1sccc1Nc1c(NC2CCCCC2)c(=O)c1=O] | 0 |  |  | > 50 | 
43 | CNC(=O)c1cccc(NC(=O)N[C@H](C)Cc2ccc(C)s2)c1C [C115, CNC(=O)c1cccc(NC(=O)N[C@H](C)Cc2ccc(C)s2)c1C] | 0 |  |  |  | IC50 (human CCR7): > 50 µM
44 | CN(C)CCNC(=S)Nc1cc(C(F)(F)F)cc(C(F)(F)F)c1 [C041, S=C(NCCN(C)C)NC1=CC(C(F)(F)F)=CC(C(F)(F)F)=C1] | 0 |  |  | > 50 | 
45 | O=C(NCC1(c2cccc(F)c2)CCCCC1)c1n[nH]c(=O)[nH]1 [C195, O=C(NCC1(c2cccc(F)c2)CCCCC1)c1n[nH]c(=O)[nH]1] |  | > 50 | 0 |  | 
